Assay results: paper PMC3465710 (Biochemistry, 2011)
Where “and” joins values, the source holds several entries; their conditions need not be identical. Equal entries are not always repeated. Where two headings read alike, the source gives them in different places.

Biological target: T1, GLUT1 (Homo sapiens, UniProt P11166)
T1 sequence (P11166 1-492): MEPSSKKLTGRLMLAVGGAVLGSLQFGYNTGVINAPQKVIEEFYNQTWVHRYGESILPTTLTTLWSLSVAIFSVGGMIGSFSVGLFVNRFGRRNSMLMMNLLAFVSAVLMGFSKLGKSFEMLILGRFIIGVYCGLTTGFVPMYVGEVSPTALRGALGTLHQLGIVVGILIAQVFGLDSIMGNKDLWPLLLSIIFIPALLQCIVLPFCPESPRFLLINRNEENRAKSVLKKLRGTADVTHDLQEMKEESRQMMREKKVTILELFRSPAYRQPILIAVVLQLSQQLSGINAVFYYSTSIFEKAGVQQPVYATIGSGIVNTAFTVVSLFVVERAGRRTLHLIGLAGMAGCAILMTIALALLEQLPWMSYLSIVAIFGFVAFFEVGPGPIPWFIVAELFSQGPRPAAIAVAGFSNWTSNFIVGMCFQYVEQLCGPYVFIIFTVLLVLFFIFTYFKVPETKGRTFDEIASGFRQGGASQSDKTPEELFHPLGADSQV
Assay type: binding
Details: for β (cooperativity parameter, second inhibitor molecule) / γ (hetero-cooperativity parameter) / Inhibition (type of modulation of CB binding) / Ki: 50 nM [3H]-CB; for β (cooperativity parameter, second inhibitor molecule) / γ (hetero-cooperativity parameter) / Ki: 4°C; for β (cooperativity parameter, second inhibitor molecule) / γ (hetero-cooperativity parameter): eqn 6; for Inhibition (type of modulation of CB binding): competing ligand 0 to 100 μM; for ΔG°: calculated as RT ln(1/KI); for ΔΔG°: change in ΔG° relative to baseline cytochalasin or forskolin; for β*γ: product; for Kd: rounded values; for Ki: eqn 6, iterative free [I]

[1] = read-out: KL (Table 3, taken from Table 1), forskolins
[2] = read-out: Ki (affinity of unoccupied GLUT1 for ligand)
[3] = read-out: KL (Table 2, taken from Table 1), cytochalasins

## CC[C@@]1(C)CC(=O)[C@@]2(O)[C@]3(C)[C@H](O)CCC(C)(C)[C@H]3[C@@H](O)[C@@H](OC(C)=O)[C@]2(C)O1 [14.15DiHFSK, 14,15-dihydro-forskolin]
  β (cooperativity parameter, second inhibitor molecule): 242.7 ± 140
  γ (hetero-cooperativity parameter): 0.571 ± 0.015
  Inhibition (type of modulation of CB binding): 1
  ΔG°: -9.55 kcal/mol
  ΔΔG°: -2.60 kcal/mol
  β*γ: 139
Listed as 14,15DiH-FSK
  β (cooperativity parameter, second inhibitor molecule): 243
  γ (hetero-cooperativity parameter): 0.6
[1]
  Kd: 30 nM
[2]
  Ki: 29.1 ± 17 nM

## C=C[C@@]1(C)CC(=O)[C@]2(O)[C@@]3(C)[C@@H](OC(C)=O)CCC(C)(C)[C@@H]3[C@H](O)[C@H](OC(C)=O)[C@@]2(C)O1 [1AFSK, 1-acetyl-forskolin]
  β (cooperativity parameter, second inhibitor molecule): 11923 ± 8441
  γ (hetero-cooperativity parameter): 0.440 ± 0.008
  Inhibition (type of modulation of CB binding): 2
  ΔG°: -10.80 kcal/mol
  ΔΔG°: -3.85 kcal/mol
  β*γ: 5246
Listed as 1A-FSK
  β (cooperativity parameter, second inhibitor molecule): 11923
  γ (hetero-cooperativity parameter): 0.44
[1]
  Kd: 3 nM
[2]
  Ki: 3 ± 2 nM

## C=C[C@@]1(C)CC(=O)[C@]2(O)[C@@]3(C)CCCC(C)(C)[C@@H]3[C@H](O)[C@H](OC(C)=O)[C@@]2(C)O1 [1DOFSK, 1-deoxy-forskolin]
  β (cooperativity parameter, second inhibitor molecule): 22179 ± 5104
  γ (hetero-cooperativity parameter): 0.438 ± 0.017
  Inhibition (type of modulation of CB binding): 2
  ΔG°: -11.41 kcal/mol
  ΔΔG°: -4.46 kcal/mol
  β*γ: 9714
Listed as 1DO-FSK
  β (cooperativity parameter, second inhibitor molecule): 22,179 ± 5,104
Listed as 1DeO-FSK
  β (cooperativity parameter, second inhibitor molecule): 22000
  γ (hetero-cooperativity parameter): 0.44
[1]
  Kd: 1 nM
[2]
  Ki: 1 ± 0.7 nM

## C=C[C@@]1(C)CC(=O)[C@]2(O)[C@@]3(C)[C@@H](O)CCC(C)(C)[C@@H]3[C@H](OC(C)=O)[C@H](O)[C@@]2(C)O1 [6A7DeAFSK, 6-acetyl, 7-deacetyl-forskolin]
  Inhibition (type of modulation of CB binding): 5

## C=C[C@@]1(C)CC(=O)[C@]2(O)[C@@]3(C)[C@@H](O)CCC(C)(C)[C@@H]3[C@H](O)[C@H](OC(=O)CF)[C@@]2(C)O1 [7FAFSK, 7-fluoroacetyl-forskolin]
  β (cooperativity parameter, second inhibitor molecule): 45.3 ± 5.0
  γ (hetero-cooperativity parameter): 0.475 ± 0.010
  Inhibition (type of modulation of CB binding): 2
  ΔG°: -7.86 kcal/mol
  ΔΔG°: -0.91 kcal/mol
  β*γ: 22
Listed as 7FA-FSK
  β (cooperativity parameter, second inhibitor molecule): 45
  γ (hetero-cooperativity parameter): 0.48
[1]
  Kd: 630 nM
[2]
  Ki: 629 ± 0.644 nM

## C=C[C@@]1(C)CC(=O)[C@]2(O)[C@@]3(C)[C@@H](OC(C)=O)CCC(C)(C)[C@@H]3[C@H](OC(C)=O)[C@H](OC(C)=O)[C@@]2(C)O1 [1,6DiAFSK, 1,60diacetyl-forskolin]
  β (cooperativity parameter, second inhibitor molecule): 1480 ± 268
  γ (hetero-cooperativity parameter): 0.489 ± 0.017
  Inhibition (type of modulation of CB binding): 2
  ΔΔG°: 0.67 kcal/mol
  β*γ: 724
Listed as 1,6DiA-FSK
  β (cooperativity parameter, second inhibitor molecule): 1500
  γ (hetero-cooperativity parameter): 0.49
[1]
  Kd: 11 nM

## C=C[C@@]1(C)CC(=O)[C@H]2[C@](C)(O1)[C@@H](OC(C)=O)[C@@H](O)[C@H]1C(C)(C)CC[C@H](O)[C@@]12C [9DOFSK, 9-deoxy-forskolin]
  β (cooperativity parameter, second inhibitor molecule): 120.3 ± 12.3
  γ (hetero-cooperativity parameter): 0.464 ± 0.016
  Inhibition (type of modulation of CB binding): 2
  ΔG°: -8.07 kcal/mol
  ΔΔG°: -1.12 kcal/mol
  β*γ: 56
Listed as 9DeO-FSK
  β (cooperativity parameter, second inhibitor molecule): 120
  γ (hetero-cooperativity parameter): 0.46
[1]
  Kd: 430 nM
[2]
  Ki: 430 ± 75 nM

## C=C[C@@]1(C)CC(=O)[C@]2(O)[C@@]3(C)[C@@H](O)CCC(C)(C)[C@@H]3[C@H](O)[C@H](O)[C@@]2(C)O1 [7DeAFSK, 7-deacetyl-forskolin]
  β (cooperativity parameter, second inhibitor molecule): ∞
  γ (hetero-cooperativity parameter): 0.450 ± 0.008
  Inhibition (type of modulation of CB binding): 4
  ΔG°: -11.02 kcal/mol
  ΔΔG°: -4.07 kcal/mol
  β*γ: ∞
Listed as 7DeA-FSK
  γ (hetero-cooperativity parameter): 0.45 ± 0.01 and 0.45
[1]
  Kd: 2 nM
[2]
  Ki: 2 ± 2 nM

## C=C1[C@@H](C)[C@H]2[C@H](Cc3ccccc3)NC(=O)[C@]23OC(=O)/C=C/C(=O)CCC[C@@H](C)C/C=C/[C@H]3[C@@H]1O [CCA, Cytochalasin A]
  β (cooperativity parameter, second inhibitor molecule): 1.11 ± 0.17
  γ (hetero-cooperativity parameter): 0.374 ± 0.052
  Inhibition (type of modulation of CB binding): 2
  ΔG°: -7.72 kcal/mol
  ΔΔG°: 1.17 kcal/mol
  β*γ: 0.42
Listed as CA
  β (cooperativity parameter, second inhibitor molecule): 1.11
  γ (hetero-cooperativity parameter): 0.38
[3]
  Kd: 820 nM
[2]
  Ki: 815 ± 96 nM

## C=C1[C@@H](C)[C@H]2[C@H](Cc3ccccc3)NC(=O)[C@]23[C@H](OC(C)=O)/C=C/[C@@](C)(O)C(=O)[C@@H](C)C/C=C/[C@H]3[C@@H]1O [CCD, Cytochalasin D]
  β (cooperativity parameter, second inhibitor molecule): 101 ± 61
  γ (hetero-cooperativity parameter): 0.557 ± 0.019
  Inhibition (type of modulation of CB binding): 3
  ΔG°: -7.23 kcal/mol
  ΔΔG°: 1.65 kcal/mol
  β*γ: 51
Listed as CD
  β (cooperativity parameter, second inhibitor molecule): 101
  γ (hetero-cooperativity parameter): 0.56
KL (Table 2, taken from Table 1), cytochalasins
  Kd: 2000 nM
Ki (affinity of unoccupied GLUT1 for ligand)
  Ki: 1970 ± 98 nM

## CC(=O)O[C@@H]1/C=C\[C@@](C)(O)C(=O)[C@@H](C)C/C=C\[C@H]2[C@H](O)C(C)=C(C)[C@H]3C(Cc4ccccc4)NC(=O)[C@]132 (some centres unmarked) [CCC, Cytochalasin C]
  β (cooperativity parameter, second inhibitor molecule): ∞
  γ (hetero-cooperativity parameter): 0.433 ± 0.003
  Inhibition (type of modulation of CB binding): 4
  ΔG°: -7.35 kcal/mol
  ΔΔG°: 1.53 kcal/mol
  β*γ: ∞
Listed as CC
  γ (hetero-cooperativity parameter): 0.43
[3]
  Kd: 1600 nM
[2]
  Ki: 1590 ± 431 nM
